According to article PMC7408562, “The Interaction of Temozolomide with Blood Components Suggests the Potential Use of Human Serum Albumin as a Biomimetic Carrier for the Drug” (Biomolecules, 2020):

Target: T1, human serum albumin (HSA) (Homo sapiens, UniProt P02768)
T1 construct: gene ALB
Assay: intrinsic tryptophan fluorescence quenching titration (water, […] °C; also pH […] phosphate buffer), supported by delayed TMZ hydrolysis
Assay type: binding

T1 sequence (P02768 25-609): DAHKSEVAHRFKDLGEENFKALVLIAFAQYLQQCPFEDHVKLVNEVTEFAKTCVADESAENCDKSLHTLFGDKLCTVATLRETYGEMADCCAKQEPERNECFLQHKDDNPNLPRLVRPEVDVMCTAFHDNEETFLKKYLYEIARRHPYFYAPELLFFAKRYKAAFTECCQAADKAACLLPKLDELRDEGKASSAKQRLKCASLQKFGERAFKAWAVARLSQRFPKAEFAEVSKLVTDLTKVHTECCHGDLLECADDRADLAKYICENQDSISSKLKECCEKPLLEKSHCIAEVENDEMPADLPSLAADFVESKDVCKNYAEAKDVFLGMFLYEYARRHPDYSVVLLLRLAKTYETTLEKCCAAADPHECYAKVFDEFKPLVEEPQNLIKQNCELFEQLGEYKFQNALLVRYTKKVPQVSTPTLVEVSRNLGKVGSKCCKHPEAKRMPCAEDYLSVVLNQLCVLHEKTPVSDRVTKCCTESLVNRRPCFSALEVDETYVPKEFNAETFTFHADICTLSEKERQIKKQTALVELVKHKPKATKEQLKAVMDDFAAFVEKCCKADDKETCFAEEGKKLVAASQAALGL

Kd: ~200 µM
SMILES: Cn1nnc2c(C(N)=O)ncn2c1=O [TMZ, Temozolomide]
